Data published in patent US9320743B2, “Use of 5α-androstane-3β,5,6β-triol in preparation of neuroprotective drugs” (GUANGZHOU CELLPROTEK PHARMACEUTICAL LTD., priority 2010, dated 2016).

Key:
Assay type in all cases: cell-based, rat
[1] = test system: cerebellar granule neurons; test: Glutamate-induced excitotoxicity of cerebellar granule neurons; details: 200 μM glutamate, 24 hours
Experimental: Cerebella with meninges and blood vessels removed were obtained from 7-8 days old rats weighted 15-20 g. 0.05 g/L DNase I was used to pipette the cell to single cell suspension following 0.25 g/L trypsin digestion. The suspension was then centrifuged to collect precipitation and resuspended with BME medium containing 10% (v/v) FBS and 25 mM KCl. The cells were then seeded on dishes pre-coated with poly-lysine. 24 hours following the seeding, 10 μM Ara-C was added to inhibit growth and proliferation of non-neuron cells, such that the cerebellar granule neurons have purity not less than 95%. Glucose was added during culture to provide supplementary energy for cellular metabolism. Experiments were carried out at 8 DIV.
(§1) The cerebellar granule neurons cultured for 8 days were divided into four groups: control group, glutamate group, MK801+glutamate group, and YC-6+glutamate group. The control group received no treatment. The glutamate group was treated with 200 μM glutamate. The MK801 group and the YC-6 group were pre-treated with MK801 (10 μM) and YC-6 with different concentrations, respectively, followed by incubation at 37° C. for 30 minutes, then glutamate was added. After 24 hours, phase contrast microscope was used to observe neuronal morphologies. The cells were stained by FDA and observed under inverted fluorescent microscope for cell counting to calculate survival rate of neurons. The activity of lactate dehydrogenase (LDH) was also determined for each group. Survival Rate=Number of live cells for each group/Number of live cells in the control group*100%

[2] = test system: cortical neurons; test: Hypoxia-induced damage of cortical neurons; details: hypoxia 1% oxygen, 12 hours; pretreated 30 min, MK801 10 μM, YC-6 different concentrations; compared with the control group
Experimental: (§2) Cortex with meninges and blood vessels removed were obtained from newborn (1-day old) rats. 0.05 g/L DNase I was used to pipette the cell to single cell suspension following 0.25 g/L trypsin digestion. The suspension was then centrifuged to collect precipitation and diluted it with DMEM-F12 medium containing 5% (v/v) FBS and 2% B27. The cell was seeded on dishes pre-coated with poly-lysine. 24 hours following the seeding, 10 μM Ara-C was added to inhibit growth and proliferation of non-neuron cells. Half medium change was performed 2-3 times per week. Experiments were carried out on the 10 DIV.
The primary cultured cortical neurons at 10 DIV were divided into four groups: control group, hypoxia group, MK801+ hypoxia group, and YC-6+ hypoxia group. 3 duplicates wells were provided for each group. The control group was incubated in CO2 normoxic incubator. […]
The treatment was performed in 96-well plates. […] The crystals were dissolved after half an hour and OD value was detected at 570 nm wavelength by Microplates-Reader. 50 μL of culture medium was obtained from all groups at different time points and LDH release was determined for each well according to the supplier's instructions. Data were presented as the mean±SD, one-way ANOVA and statistically analyzed using paired-samples t-test and analysis of variance among means of multiple samples. […]

[3] = test system: cortical neurons; test: Glutamate-induced excitotoxicity of cortical neurons; details: 200 μM glutamate, 24 hours
Experimental: as §2
as §1, with “primary cultured cortical” for “cerebellar granule”, “at 10 DIV” for “cultured for 8 days”, “nM)” for “μM)”

[4] = test system: spinal motor neurons; test: Glutamate-induced excitotoxicity of spinal motor neurons; details: 24 hours, pre-treated 30 minutes, MK801 10 μM, YC-6 different concentrations
Experimental: Spinal cord was obtained from 15-day pregnant SD rats. The cristae membrane and blood film were removed. The spinal cord tissues of fetal rats is digested with 0.125% trypsin and then centrifuged to collect intermediate layer enriched with motor neurons. Cell debris were removed by centrifugation and cells were adhered by differential velocity adherent technique for 1 h. Suspending spinal motor neurons with slower adhering velocity were collected and seeded. 24 hours following the seeding, Ara-C was added. The Culture medium was replaced on the 3 DIV with L-15 serum free medium, followed by half medium change every 2˜3 days. Experiments were carried out on the 3-5 DIV.
The primary cultured spinal motor neurons at 5 DIV were divided into four groups: control group, glutamate group, MK801+glutamate group, and YC-6+glutamate group. The control group received no treatment. The glutamate group was treated with […] glutamate. The MK801 group and the YC-6 group were pre-treated with MK801 (10 μM) and YC-6 with different concentrations, respectively, followed by incubation at 37° C. for 30 minutes, then glutamate was added. After 24 hours, phase contrast microscope was used to observe neuronal morphologies. […] The activity of lactate dehydrogenase (LDH) was also determined for each group. […]

Structure (SMILES): C[C@]12N[C@H](Cc3ccccc31)c1ccccc12 [MK801]
- survival rate of neurons ([1]; FDA staining, pre-treated 30 minutes, MK801 10 μM, YC-6 different concentrations, vs glutamate group): increased survival rate
- neuronal morphology (phase contrast microscope) ([1]; majority of neurons): maintain the integrity of soma and processes
- LDH release ([1]; pre-treated 30 minutes, MK801 10 μM, YC-6 different concentrations, vs glutamate group): decreased LDH release
- morphology of cortical neuronal cells [2]: no difference in morphology
- survival rate of neurons ([3]; FDA staining, pre-treated 30 minutes, MK801 10 nM, YC-6 different concentrations, vs glutamate group): increased survival rates
- neuronal morphology (phase contrast microscope) ([3]; a great number of neurons): maintained intact soma and neurites
- LDH release ([3]; pre-treated 30 minutes, MK801 10 nM, YC-6 different concentrations, vs glutamate group): decreased LDH release
- number of spinal motor neurons (phase contrast microscope) [4]: significantly increased
